Like-named read-outs stand apart in the source and are kept apart here. *1 amine or outer side, *2 acyl side, *3 side chain or, on linkers, in order; H or OH if unused. Where a SMILES comes first, the peptide text is derived from it. Side-chain parts run from the residue outwards. [ ]: non-standard residue; d: D form. The star is where a group is joined. Nonadecanoyl(19-PO3H2) = O=C(CCCCCCCCCCCCCCCCCCP(=O)(O)O)*; γGlu = O=C(O)[C@H](CCC(=O)[*:2])N[*:1]; AEEA = NCCOCCOCC(=O)O; Aib = CC(C)(N)C(=O)O
How the values were obtained:
[1] = target: T1, human recombinant GIP receptor (Homo sapiens, UniProt P48546); assay: TagLite binding assay, GIP receptor, without and with 2% HSA
T1 sequence (P48546 22-466): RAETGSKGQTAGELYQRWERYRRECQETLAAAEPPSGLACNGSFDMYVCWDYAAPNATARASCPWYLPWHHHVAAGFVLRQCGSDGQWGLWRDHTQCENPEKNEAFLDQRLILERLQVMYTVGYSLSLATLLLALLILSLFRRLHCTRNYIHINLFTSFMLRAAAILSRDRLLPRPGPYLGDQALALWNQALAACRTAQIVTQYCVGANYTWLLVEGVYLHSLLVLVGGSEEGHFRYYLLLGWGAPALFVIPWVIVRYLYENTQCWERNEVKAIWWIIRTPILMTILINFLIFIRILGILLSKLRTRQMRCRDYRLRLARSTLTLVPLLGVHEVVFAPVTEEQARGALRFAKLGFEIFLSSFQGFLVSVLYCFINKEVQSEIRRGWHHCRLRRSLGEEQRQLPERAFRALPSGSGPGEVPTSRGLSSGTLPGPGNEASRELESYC
Description: (§1) Binding data for Compounds 15-25, for two human recombinant G protein coupled receptors, GLP-1 and GIP, was obtained using […]® binding assay and Epics Therapeutics cell lines. The binding assay was repeated in the presence of 2% human serum albumin (HSA). Compounds 16, 21, and 22 have an HSA ratio for the GLP-1 receptor of 7.1, 7.6, and 7.8, respectively. Compounds 15, 18, and 23 have an HSA ratio for the GIP receptor of 7.3, 4.3, and 6.4, respectively. A lower HSA ratio indicates greater binding affinity for the receptor than for albumin when compared to a compound with a greater HSA ratio.

[2] = design: species or system cynomolgus monkeys; settings: cynomolgus monkey, in vivo, sc, 0.2 mg/kg
Method: Subcutaneous (SC) dosing of the compounds in a vehicle of 0.1% bovine serum albumin in phosphate buffered saline solution was performed with male cynomolgus monkeys. […] Samples were obtained at 1, 4, 8, 12, 24, 48, 72, 96, 120, 168, 192, 240 and 336 hours after the single dose was administered.

[3] = target: human recombinant GLP-1 receptor (Homo sapiens, UniProt P43220); assay: TagLite binding assay, GLP-1 receptor, without and with 2% HSA
human recombinant GLP-1 receptor, sequence (P43220 24-463): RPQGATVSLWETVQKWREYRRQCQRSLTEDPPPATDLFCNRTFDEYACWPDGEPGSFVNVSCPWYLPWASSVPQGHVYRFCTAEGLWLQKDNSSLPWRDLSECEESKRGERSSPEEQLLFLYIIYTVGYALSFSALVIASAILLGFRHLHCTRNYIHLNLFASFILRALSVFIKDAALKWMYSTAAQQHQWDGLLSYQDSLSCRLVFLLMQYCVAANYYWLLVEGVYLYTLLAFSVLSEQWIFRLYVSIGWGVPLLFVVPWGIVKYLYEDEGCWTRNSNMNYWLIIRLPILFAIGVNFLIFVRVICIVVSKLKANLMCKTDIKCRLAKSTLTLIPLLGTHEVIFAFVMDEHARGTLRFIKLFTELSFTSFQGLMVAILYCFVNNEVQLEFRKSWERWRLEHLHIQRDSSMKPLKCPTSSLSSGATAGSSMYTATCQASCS
Description: as §1

[4] = 2% human serum albumin, read-out: GIP receptor IC50 2% HSA
[5] = no HSA, read-out: GIP receptor IC50 No HSA
[6] = 2% human serum albumin, read-out: GLP-1 receptor IC50 2% HSA
[7] = no HSA, read-out: GLP-1 receptor IC50 No HSA

SMILES | IC50 [1, 4] [nM] | IC50 [1, 5] [nM] | AUC(0-inf) [2] [µg·h/mL] | AUC(0-t) [2] [µg·h/mL] | Cmax [2] [ng/mL] | Tmax [2] [h] | half-life [2] [days] | IC50 [3, 6] [nM] | IC50 [3, 7] [nM] | mean half life as compared to tirzepatide (in words) [2] | mean half life longer compared to tirzepatide [2]
CC[C@H](C)[C@H](NC(=O)[C@H](CCCCN)NC(=O)[C@H](CC(=O)O)NC(=O)[C@H](CC(C)C)NC(=O)[C@H](Cc1ccccc1)NC(=O)[C@@H](NC(=O)[C@H](CO)NC(=O)[C@H](Cc1ccc(O)cc1)NC(=O)[C@H](CC(=O)O)NC(=O)[C@H](CO)NC(=O)[C@@H](NC(=O)[C@H](Cc1ccccc1)NC(=O)[C@@H](NC(=O)CNC(=O)[C@H](CCC(=O)O)NC(=O)C(C)(C)NC(=O)[C@@H](N)Cc1ccc(O)cc1)[C@@H](C)O)[C@@H](C)O)[C@@H](C)CC)C(=O)N[C@@H](C)C(=O)N[C@@H](CCC(N)=O)C(=O)N[C@@H](CCCCNC(=O)COCCOCCNC(=O)COCCOCCNC(=O)CC[C@H](NC(=O)CCCCCCCCCCCCCCCCCCP(=O)(O)O)C(=O)O)C(=O)N[C@@H](C)C(=O)N[C@@H](Cc1ccccc1)C(=O)N[C@H](C(=O)N[C@@H](CCC(N)=O)C(=O)N[C@@H](Cc1c[nH]c2ccccc12)C(=O)N[C@@H](CC(C)C)C(=O)N[C@H](C(=O)N[C@@H](C)C(=O)NCC(=O)NCC(=O)N1CCC[C@H]1C(=O)N[C@@H](CO)C(=O)N[C@@H](CO)C(=O)NCC(=O)N[C@@H](C)C(=O)N1CCC[C@H]1C(=O)N1CCC[C@H]1C(=O)N1CCC[C@H]1C(=O)N[C@@H](CO)C(N)=O)[C@@H](C)CC)C(C)C [Compound 18] (H-Y[Aib]EGTFTSDYSIFLDKIAQK([AEEA-AEEA-γGlu-Nonadecanoyl(19-PO3H2)])AFVQWLIAGGPSSGAPPPS-NH2) | 2850 | 659 | 149 | 140 | 1340 | 13.3 | 3.38 | 1520 | 166 | – | –
CC[C@H](C)[C@H](NC(=O)[C@H](CCCCN)NC(=O)[C@H](CC(=O)O)NC(=O)[C@H](CC(C)C)NC(=O)C(C)(C)NC(=O)[C@@H](NC(=O)[C@H](CO)NC(=O)[C@H](Cc1ccc(O)cc1)NC(=O)[C@H](CC(=O)O)NC(=O)[C@H](CO)NC(=O)[C@@H](NC(=O)[C@H](Cc1ccccc1)NC(=O)[C@@H](NC(=O)CNC(=O)[C@H](CCC(=O)O)NC(=O)C(C)(C)NC(=O)[C@@H](N)Cc1ccc(O)cc1)[C@@H](C)O)[C@@H](C)O)[C@@H](C)CC)C(=O)N[C@@H](C)C(=O)N[C@@H](CCC(N)=O)C(=O)N[C@@H](CCCCNC(=O)COCCOCCNC(=O)COCCOCCNC(=O)CC[C@H](NC(=O)CCCCCCCCCCCCCCCCCCP(=O)(O)O)C(=O)O)C(=O)N[C@@H](C)C(=O)N[C@@H](Cc1ccccc1)C(=O)N[C@H](C(=O)N[C@@H](CCC(N)=O)C(=O)N[C@@H](Cc1c[nH]c2ccccc12)C(=O)N[C@@H](CC(C)C)C(=O)N[C@H](C(=O)N[C@@H](CCCNC(=N)N)C(=O)NCC(=O)NCC(=O)N1CCC[C@H]1C(=O)N[C@@H](CO)C(=O)N[C@@H](CO)C(=O)NCC(=O)N[C@@H](C)C(=O)N1CCC[C@H]1C(=O)N1CCC[C@H]1C(=O)N1CCC[C@H]1C(=O)N[C@@H](CO)C(N)=O)[C@@H](C)CC)C(C)C [Compound 20] (H-Y[Aib]EGTFTSDYSI[Aib]LDKIAQK([AEEA-AEEA-γGlu-Nonadecanoyl(19-PO3H2)])AFVQWLIRGGPSSGAPPPS-NH2) | 4420 | 492 | 417 | 342 | 2060 | 13.3 | 5.51 | 2050 | 226 | more than twice an long as compared to tirzepatide | at least 50%
